Source: US20040024024A1, “Aromatic sulfone hydroxamates and their use as protease inhibitors” (priority 2001, published 2004)
pIC50: −log10 of the molar value.

What was measured:
[1] = tested on: solid tumor cancers (colorectal, pancreatic, ovarian, and prostate); details: cited from earlier work
Human recombinant MMP-1 = target: T1, Human recombinant MMP-1 (Homo sapiens, UniProt P03956); assay: In vitro MMP inhibition, IC50 determination (fluorogenic substrate I); assay type: biochemical
T1 construct: made in house; host or cells: MMP-1-transfected HT-1080 cells (spent media)
T1 sequence (P03956 100-469): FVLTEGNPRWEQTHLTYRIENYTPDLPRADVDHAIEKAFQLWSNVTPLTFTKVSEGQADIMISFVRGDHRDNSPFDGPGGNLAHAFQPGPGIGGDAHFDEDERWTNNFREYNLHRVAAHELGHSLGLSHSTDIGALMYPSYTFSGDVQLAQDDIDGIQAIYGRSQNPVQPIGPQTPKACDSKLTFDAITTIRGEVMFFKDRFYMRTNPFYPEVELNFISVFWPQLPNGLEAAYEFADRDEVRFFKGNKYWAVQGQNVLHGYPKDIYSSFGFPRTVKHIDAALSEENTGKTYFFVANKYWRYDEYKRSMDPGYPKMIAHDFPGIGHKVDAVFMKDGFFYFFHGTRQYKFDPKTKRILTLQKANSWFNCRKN
Outline: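 APMA- or trypsin-activated enzyme, purified from spent media of transfected HT-1080 cells, incubated at room temperature with 4 μM MCA-Pro-Leu-Gly-Leu-Dpa-Ala-Arg-NH2 and graded inhibitor in Tris buffer pH 7.5 (10 mM CaCl2, 0.05% Brij). Cleavage read by fluorescence (ex 328/em 415 nm); IC50 from fluorescence reduction versus inhibitor concentration.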

Human recombinant MMP-2 = target: T2, Human recombinant MMP-2 (Homo sapiens, UniProt P08253); assay: as above; assay type: biochemical
T2 construct: made in house; host or cells: MMP-2-transfected p2AHT2 cells
T2 sequence (P08253 110-660): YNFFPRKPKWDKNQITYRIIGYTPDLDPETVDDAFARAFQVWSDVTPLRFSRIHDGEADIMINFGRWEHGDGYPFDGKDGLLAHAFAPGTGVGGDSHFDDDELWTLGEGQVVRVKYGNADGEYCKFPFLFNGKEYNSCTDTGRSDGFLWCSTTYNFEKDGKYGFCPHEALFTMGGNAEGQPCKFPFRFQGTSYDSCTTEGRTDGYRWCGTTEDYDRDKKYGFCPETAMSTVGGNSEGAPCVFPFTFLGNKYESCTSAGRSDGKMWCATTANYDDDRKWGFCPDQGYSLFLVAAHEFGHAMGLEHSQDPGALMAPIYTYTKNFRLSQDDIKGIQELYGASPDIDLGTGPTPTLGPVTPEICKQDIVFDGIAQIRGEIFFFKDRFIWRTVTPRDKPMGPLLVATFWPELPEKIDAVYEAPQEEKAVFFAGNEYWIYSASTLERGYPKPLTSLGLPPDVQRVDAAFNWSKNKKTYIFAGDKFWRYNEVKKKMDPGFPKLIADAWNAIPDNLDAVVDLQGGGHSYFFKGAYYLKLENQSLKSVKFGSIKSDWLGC
Outline: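 APMA- or trypsin-activated recombinant MMP-2 was incubated at room temperature with serial inhibitor dilutions in Tris buffer pH 7.5 (100 mM NaCl, 10 mM CaCl2, 0.05% Brij), with DMSO from 1% stocks, and 4 μM substrate I. Cleavage was read by fluorescence at 328/415 nm; IC50 was taken from the loss of fluorescence versus inhibitor concentration.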

Human recombinant MMP-9 = target: T3, Human recombinant MMP-9 (Homo sapiens, UniProt P14780); assay: as above; assay type: biochemical
T3 construct: made in house; host or cells: MMP-9-transfected HT1080 cells (spent media)
Outline: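 MMP-9 proenzyme purified from transfected HT1080 cell media, activated with APMA or trypsin. Compound dilutions in pH 7.5 Tris/NaCl/CaCl2 buffer with 0.05% polyoxyethylene 23 lauryl ether, incubated at room temperature with 4 μM MCA/Dpa substrate I. IC50 from fluorescence loss (ex 328, em 415 nm) versus inhibitor concentration.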

Human recombinant MMP-13 = target: T4, Human recombinant MMP-13 (Homo sapiens, UniProt P45452); assay: as above; assay type: biochemical
T4 construct: made in house; host or cells: baculovirus / insect cells
Outline: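 Fluorescence at 415 nm (excitation 328 nm) reports Gly-Leu cleavage of 4 μM quenched methoxycoumarin peptide substrate I. Human recombinant MMP-13, activated by trypsin or APMA, was incubated at room temperature with varied inhibitor concentrations in pH 7.5 Tris/NaCl/CaCl2 buffer; IC50 derived from reduced fluorescence.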

Human recombinant MMP-14 = target: T5, Human recombinant MMP-14 (Homo sapiens, UniProt P50281); assay: as above; assay type: biochemical
T5 construct: The catalytic domain enzyme was expressed in E. coli inclusion bodies, solubilized in urea; made in house
Outline: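 Catalytic-domain MMP-14, expressed in E. coli and refolded, activated with APMA or trypsin; compounds incubated at room temperature with 4 μM fluorogenic substrate I (MCA-PLGL-Dpa-AR-NH2) in Tris/NaCl/CaCl2 buffer, pH 7.5. Fluorescence at ex 328/em 415 nm; IC50 from loss of fluorescence versus inhibitor concentration.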

[2] = value outside parentheses (Ki in parenthesis)

T3 sequence (P14780 107-707 limits assumed): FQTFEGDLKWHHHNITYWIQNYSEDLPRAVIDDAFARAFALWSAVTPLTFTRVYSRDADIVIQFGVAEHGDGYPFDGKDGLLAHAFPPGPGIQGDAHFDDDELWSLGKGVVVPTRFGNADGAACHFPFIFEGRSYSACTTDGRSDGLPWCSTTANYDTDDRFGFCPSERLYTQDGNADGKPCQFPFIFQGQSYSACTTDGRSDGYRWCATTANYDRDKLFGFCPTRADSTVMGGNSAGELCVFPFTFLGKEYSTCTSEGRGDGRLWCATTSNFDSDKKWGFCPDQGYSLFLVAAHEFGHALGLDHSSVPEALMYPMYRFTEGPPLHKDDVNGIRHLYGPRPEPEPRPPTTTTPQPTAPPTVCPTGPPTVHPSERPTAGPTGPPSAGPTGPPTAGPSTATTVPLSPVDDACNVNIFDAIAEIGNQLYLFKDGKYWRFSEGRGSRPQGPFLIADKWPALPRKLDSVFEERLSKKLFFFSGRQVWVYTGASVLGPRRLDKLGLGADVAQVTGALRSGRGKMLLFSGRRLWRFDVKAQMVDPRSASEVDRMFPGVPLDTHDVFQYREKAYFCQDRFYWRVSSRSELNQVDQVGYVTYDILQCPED

pIC50 (Human recombinant MMP-1; value outside parenthesis)	pIC50 (Human recombinant MMP-2; value outside parenthesis)	pIC50 (Human recombinant MMP-9; value outside parenthesis)	pIC50 (Human recombinant MMP-13; value outside parenthesis)	pIC50 (Human recombinant MMP-14; value outside parenthesis)	pIC50 (Human recombinant MMP-1; [2])	pIC50 (Human recombinant MMP-2; [2])	pIC50 (Human recombinant MMP-9; [2])	pIC50 (Human recombinant MMP-13; [2])	pIC50 (Human recombinant MMP-14; [2])	SMILES	also measured
5.93	8.12	6.98	8.52	< 5.00						CC(C)c1ccc(C(=O)NNC(=O)CCCOc2ccc(S(=O)(=O)C3(C(=O)NO)CCOCC3)cc2)cc1 [Example 246]	
					< 5.00	5.70	5.22	7.60	< 5.00	O=C(NO)C1(S(=O)(=O)c2ccc(OCCCSCc3ccccc3)cc2)CCOCC1 [Example 439]	
5.94	7.88	6.41	8.74	< 5.00						O=C(NO)C1(S(=O)(=O)c2ccc(OCCCc3nnc(-c4ccc(Cl)cc4)o3)cc2)CCOCC1 [Example 260]	
5.41	8.44	7.95	8.74	5.85						CN(C)Cc1ccc(C(=O)CCCCOc2ccc(S(=O)(=O)C3(C(=O)NO)CCN(C4CC4)CC3)cc2)cc1 [Example 187]	
< 5.00	6.68	6.31	8.43	< 5.00						CC(C)(C)c1ccc(-c2nnc(CCCOc3ccc(S(=O)(=O)C4(C(=O)NO)CCOCC4)cc3)o2)cc1 [Example 278]	
					< 5.00	6.88	7.45	8.92	5.01	Cc1cc(C(=O)NCCCOc2ccc(S(=O)(=O)C3(C(=O)NO)CCOCC3)cc2)no1 [Example 386]	

Continued, compound first:

SMILES	pIC50 (Human recombinant MMP-1; value outside parenthesis)	pIC50 (Human recombinant MMP-2; value outside parenthesis)	pIC50 (Human recombinant MMP-9; value outside parenthesis)	pIC50 (Human recombinant MMP-13; value outside parenthesis)	pIC50 (Human recombinant MMP-14; value outside parenthesis)	pIC50 (Human recombinant MMP-1; [2])	pIC50 (Human recombinant MMP-2; [2])	pIC50 (Human recombinant MMP-9; [2])	pIC50 (Human recombinant MMP-13; [2])	pIC50 (Human recombinant MMP-14; [2])	also measured
CNC(=O)[C@@H](NC(=O)[C@H](CC(C)C)[C@H](O)C(=O)NO)C(C)(C)C [Marimastat]											most common drug-related toxicity ([1]; clinical trials, patients): musculoskeletal pain and stiffness; effect on cancer-specific antigens used as surrogate markers for biological activity ([1]; patients with advanced, rapidly progressive, treatment-refractory solid tumor cancers): dose-related reduction in the rise of cancer-specific antigens
COc1ccc(OCCCOc2ccc(S(=O)(=O)C3(C(=O)NO)CCN(C4CC4)CC3)cc2)cc1 [Example 442]						< 5.00	8.21	8.27	8.74	6.00	
O=C(NO)C1(S(=O)(=O)c2ccc(OCCCOCc3ccccn3)cc2)CCOCC1 [Example 519]											pIC50 (Human recombinant MMP-1; value outside parentheses): < 5.00; pIC50 (Human recombinant MMP-2; value outside parentheses): 6.77; pIC50 (Human recombinant MMP-9; value outside parentheses): 6.38; pIC50 (Human recombinant MMP-13; value outside parentheses): 8.66; pIC50 (Human recombinant MMP-14; value outside parentheses): < 5.00
O=C(NO)C1(S(=O)(=O)c2ccc(OCCSc3nc4ccc(Cl)cc4o3)cc2)CCN(C2CC2)CC1 [Example 188]	< 5.00	8.33	7.32	9.52	5.45						
O=C(NCCCOc1ccc(S(=O)(=O)C2(C(=O)NO)CCOCC2)cc1)C12CC3CC(CC(C3)C1)C2 [Example 405]						< 5.00	5.63	< 5.00	8.72	< 5.00	
COc1ccc(C(=O)CCCCOc2ccc(S(=O)(=O)C3(C(=O)NO)CCOCC3)cc2)c(OC)c1 [Example 351]						< 5.00	7.47	5.65	9.00	< 5.00	
COc1ccc(-c2nnn(CCCOc3ccc(S(=O)(=O)C4(C(=O)NO)CCOCC4)cc3)n2)cc1 [Example 252]	5.25	7.32	5.98	9.70	< 5.00						
